From patent US11135320B2, “Radioligands for pretargeted pet imaging and methods of their therapeutic use” (priority 2015, dated 2021)
Values joined by “and” are separate entries in the source; they are usually repeats but may differ in a detail not shown here. Equal entries are not always repeated.

Assay: Acute biodistribution of ^64Cu-labeled tetrazine radioligands in healthy mice
Type: in vivo, athymic nude mice
Conditions: for Large Intestine activity concentration / Small Intestine activity concentration / Stomach activity concentration: contents not removed
Procedure: (§1) Mice were administered ^64Cu-Tz-NOTA (25-30 μCi in 200 μL 0.9% sterile saline) via intravenous tail vein injection. Animals (n=4 per group) were euthanized by CO2(g) asphyxiation at 1, 4, and 24 h after injection. After asphyxiation, tissues were removed, rinsed in water, dried in air for 5 min, weighed, and counted in a gamma counter calibrated for ^64Cu. Counts were converted into activity using a calibration curve generated from known standards. Count data were background- and decay-corrected to the time of injection, and the percent injected dose per gram (% ID/g) for each tissue sample was calculated by normalization to the total activity injected. Contents within the stomach, small intestine, and large intestine were not removed for the measurements.
as §1, with “^64Cu-Tz-PEG7-NOTA” for “^64Cu-Tz-NOTA”
as §1, with “^64Cu-Tz-SarAr” for “^64Cu-Tz-NOTA”
as §1, with “Healthy female athymic nude mice (n=4 per radioligand) were” for “Mice were”, “administered ^64Cu-Tz-PEG7-NOTA or ^64Cu-Tz-SarAr” for “administered ^64Cu-Tz-NOTA”, “vein injection (t=0).” for “vein injection.”, “4, 12,” for “4,”, “injected.” for “injected. Contents within the stomach, small intestine, and large intestine were not removed for the measurements.”

Compound: O=C([O-])CN1CCN(CC(=O)[O-])CC(Cc2ccc(NC(=O)CCCC(=O)NCc3ccc(-c4nncnn4)cc3)cc2)N(CC(=O)[O-])CC1.[64Cu+2] (stereo not drawn) [^64Cu-Tz-NOTA]
- Blood activity concentration (1 h p.i.): 0.23 ± 0.01 % ID/g
- Bone activity concentration (1 h p.i.): 0.10 ± 0.03 % ID/g
- Heart activity concentration (1 h p.i.): 0.10 ± 0.02 % ID/g
- Kidney activity concentration (1 h p.i.): 0.53 ± 0.09 % ID/g
- Liver activity concentration (1 h p.i.): 1.45 ± 0.39 % ID/g
- Lung activity concentration (1 h p.i.): 0.38 ± 0.06 % ID/g
- Muscle activity concentration (1 h p.i.): 0.04 ± 0.02 % ID/g
- Spleen activity concentration (1 h p.i.): 0.15 ± 0.05 % ID/g
- Large Intestine activity concentration (1 h p.i.): 11.58 ± 2.19 % ID/g
- Small Intestine activity concentration (1 h p.i.): 3.14 ± 1.47 % ID/g
- Stomach activity concentration (1 h p.i.): 0.12 ± 0.04 % ID/g
- Blood activity concentration (4 h p.i.): 0.13 ± 0.01 % ID/g
- Bone activity concentration (4 h p.i.): 0.07 ± 0.04 % ID/g
- Heart activity concentration (4 h p.i.): 0.11 ± 0.02 % ID/g
- Kidney activity concentration (4 h p.i.): 0.33 ± 0.07 % ID/g
- Liver activity concentration (4 h p.i.): 0.42 ± 0.13 % ID/g
- Lung activity concentration (4 h p.i.): 0.27 ± 0.08 % ID/g
- Muscle activity concentration (4 h p.i.): 0.03 ± 0.02 % ID/g
- Spleen activity concentration (4 h p.i.): 0.09 ± 0.02 % ID/g
- Large Intestine activity concentration (4 h p.i.): 10.0±1.3 % ID/g and 10.03 ± 1.33 % ID/g
- Small Intestine activity concentration (4 h p.i.): 0.17 ± 0.07 % ID/g
- Stomach activity concentration (4 h p.i.): 0.05 ± 0.03 % ID/g
- Blood activity concentration (24 h p.i.): 0.07 ± 0.01 % ID/g
- Bone activity concentration (24 h p.i.): 0.03 ± 0.01 % ID/g
- Heart activity concentration (24 h p.i.): 0.09 ± 0.01 % ID/g
- Kidney activity concentration (24 h p.i.): 0.22 ± 0.07 % ID/g
- Liver activity concentration (24 h p.i.): 0.21 ± 0.06 % ID/g
- Lung activity concentration (24 h p.i.): 0.21 ± 0.02 % ID/g
- Muscle activity concentration (24 h p.i.): 0.03 ± 0.03 % ID/g
- Spleen activity concentration (24 h p.i.): 0.08 ± 0.02 % ID/g
- Large Intestine activity concentration (24 h p.i.): 1.4±0.7 % ID/g and 1.37 ± 0.65 % ID/g
- Small Intestine activity concentration (24 h p.i.): 0.10 ± 0.02 % ID/g
- Stomach activity concentration (24 h p.i.): 0.18 ± 0.11 % ID/g

Compound: O=C(O)CN1CCN(CC(=O)O)CC(Cc2ccc(NC(=S)NCCOCCOCCOCCOCCOCCOCCOCCNC(=O)CCCC(=O)NCc3ccc(-c4nncnn4)cc3)cc2)N(CC(=O)O)CC1.[64Cu] (stereo not drawn) [^64Cu-Tz-PEG7-NOTA]
- Blood activity concentration (1 h p.i.): 0.38 ± 0.14 % ID/g
- Bone activity concentration (1 h p.i.): 0.09 ± 0.06 % ID/g
- Heart activity concentration (1 h p.i.): 0.17 ± 0.02 % ID/g
- Kidney activity concentration (1 h p.i.): 1.5±0.2 % ID/g and 1.51 ± 0.24 % ID/g
- Liver activity concentration (1 h p.i.): 0.77 ± 0.11 % ID/g
- Lung activity concentration (1 h p.i.): 0.49 ± 0.11 % ID/g
- Muscle activity concentration (1 h p.i.): 0.05 ± 0.01 % ID/g
- Spleen activity concentration (1 h p.i.): 0.19 ± 0.01 % ID/g
- Large Intestine activity concentration (1 h p.i.): 6.35 ± 0.69 % ID/g
- Small Intestine activity concentration (1 h p.i.): 0.5 ± 0.26 % ID/g
- Stomach activity concentration (1 h p.i.): 0.18 ± 0.06 % ID/g
- Blood activity concentration (4 h p.i.): 0.26 ± 0.14 % ID/g
- Bone activity concentration (4 h p.i.): 0.07 ± 0.02 % ID/g
- Heart activity concentration (4 h p.i.): 0.18 ± 0.03 % ID/g
- Kidney activity concentration (4 h p.i.): 1.2±0.4 % ID/g and 1.23 ± 0.39 % ID/g
- Liver activity concentration (4 h p.i.): 0.63 ± 0.2 % ID/g
- Lung activity concentration (4 h p.i.): 0.35 ± 0.13 % ID/g
- Muscle activity concentration (4 h p.i.): 0.03 ± 0.02 % ID/g
- Spleen activity concentration (4 h p.i.): 0.14 ± 0.02 % ID/g
- Large Intestine activity concentration (4 h p.i.): 4.9±0.7 % ID/g and 4.91 ± 0.71 % ID/g
- Small Intestine activity concentration (4 h p.i.): 0.3 ± 0.14 % ID/g
- Stomach activity concentration (4 h p.i.): 0.36 ± 0.25 % ID/g
- Blood activity concentration (24 h p.i.): 0.08 ± 0.01 % ID/g
- Bone activity concentration (24 h p.i.): 0.06 ± 0.01 % ID/g
- Heart activity concentration (24 h p.i.): 0.09 ± 0.01 % ID/g
- Kidney activity concentration (24 h p.i.): 0.86 ± 0.11 % ID/g
- Liver activity concentration (24 h p.i.): 0.32 ± 0.11 % ID/g
- Lung activity concentration (24 h p.i.): 0.17 ± 0.03 % ID/g
- Muscle activity concentration (24 h p.i.): 0.02 ± 0.01 % ID/g
- Spleen activity concentration (24 h p.i.): 0.12 ± 0.01 % ID/g
- Large Intestine activity concentration (24 h p.i.): 0.40 ± 0.15 % ID/g
- Small Intestine activity concentration (24 h p.i.): 0.10 ± 0.01 % ID/g
- Stomach activity concentration (24 h p.i.): 0.09 ± 0.02 % ID/g

Compound: NC12CNCCNCC(NCc3ccc(CNC(=O)CCCC(=O)NCc4ccc(-c5nncnn5)cc4)cc3)(CNCCNC1)CNCCNC2.[64Cu+2] [^64Cu-Tz-SarAr]
- Blood activity concentration (1 h p.i.): 0.42 ± 0.11 % ID/g
- Bone activity concentration (1 h p.i.): 0.12 ± 0.03 % ID/g
- Heart activity concentration (1 h p.i.): 0.22 ± 0.06 % ID/g
- Kidney activity concentration (1 h p.i.): 2.3±0.4 % ID/g and 2.34 ± 0.35 % ID/g
- Liver activity concentration (1 h p.i.): 0.72 ± 0.03 % ID/g
- Lung activity concentration (1 h p.i.): 0.32 ± 0.06 % ID/g
- Muscle activity concentration (1 h p.i.): 0.05 ± 0.03 % ID/g
- Spleen activity concentration (1 h p.i.): 0.38 ± 0.06 % ID/g
- Large Intestine activity concentration (1 h p.i.): 0.07±0.01 % ID/g
- Small Intestine activity concentration (1 h p.i.): 0.29 ± 0.21 % ID/g
- Stomach activity concentration (1 h p.i.): 0.24 ± 0.14 % ID/g
- Blood activity concentration (4 h p.i.): 0.15 ± 0.01 % ID/g
- Bone activity concentration (4 h p.i.): 0.09 ± 0.01 % ID/g
- Heart activity concentration (4 h p.i.): 0.12 ± 0.02 % ID/g
- Kidney activity concentration (4 h p.i.): 1.57 ± 0.19 % ID/g
- Liver activity concentration (4 h p.i.): 0.42 ± 0.24 % ID/g
- Lung activity concentration (4 h p.i.): 0.31 ± 0.09 % ID/g
- Muscle activity concentration (4 h p.i.): 0.04 ± 0.01 % ID/g
- Spleen activity concentration (4 h p.i.): 0.2 ± 0.05 % ID/g
- Large Intestine activity concentration (4 h p.i.): 0.08 ± 0.03 % ID/g
- Small Intestine activity concentration (4 h p.i.): 0.16 ± 0.03 % ID/g
- Stomach activity concentration (4 h p.i.): 0.2 ± 0.1 % ID/g
- Blood activity concentration (24 h p.i.): 0.06 ± 0.01 % ID/g
- Bone activity concentration (24 h p.i.): 0.08 ± 0.02 % ID/g
- Heart activity concentration (24 h p.i.): 0.08 ± 0.02 % ID/g
- Kidney activity concentration (24 h p.i.): 1.26 ± 0.41 % ID/g
- Liver activity concentration (24 h p.i.): 0.28 ± 0.07 % ID/g
- Lung activity concentration (24 h p.i.): 0.24 ± 0.06 % ID/g
- Muscle activity concentration (24 h p.i.): 0.03 ± 0.01 % ID/g
- Spleen activity concentration (24 h p.i.): 0.21 ± 0.04 % ID/g
- Large Intestine activity concentration (24 h p.i.): 0.07 ± 0.01 % ID/g
- Small Intestine activity concentration (24 h p.i.): 0.07 ± 0.01 % ID/g
- Stomach activity concentration (24 h p.i.): 0.05 ± 0.01 % ID/g
